Mutagenic call data for five compounds are collected here from PubChem BioAssay AID1259407 (Chemical Carcinogenesis Research Information System (CCRIS), 2018).

Structures are written as SMILES. Calls of active or inactive are those of the source. The rule behind the calls is not given here.

This data set concerns CCRIS mutagenicity, Ames/micronucleus/aberration tests. Briefly: CCRIS mutagenicity studies.
Setting [1] is: Test System: AMES SALMONELLA TYPHIMURIUM, Strain/Indicator: TA98, Metabolic Activation: NONE, Method: PREINCUBATION
[2] abbreviates: Test System: AMES SALMONELLA TYPHIMURIUM, Strain/Indicator: TA100, Metabolic Activation: NONE, Method: PREINCUBATION

For the compound `Nc1cccc([N+](=O)[O-])c1N`, the mutagenic call runs as follows: (Test System: AMES SALMONELLA TYPHIMURIUM, Strain/Indicator: TA98(NR), Metabolic Activation: NONE, Method: PREINCUBATION) “active; positive”; (Test System: AMES SALMONELLA TYPHIMURIUM, Strain/Indicator: TA98(NR), Metabolic Activation: RAT, LIVER, S-9, AROCLOR 1254, Method: PREINCUBATION) “active; positive”; under setting [1], “active; positive”; (Test System: AMES SALMONELLA TYPHIMURIUM, Strain/Indicator: TA100(NR), Metabolic Activation: NONE, Method: PREINCUBATION) “active; positive”; (Test System: AMES SALMONELLA TYPHIMURIUM, Strain/Indicator: TA100(NR), Metabolic Activation: RAT, LIVER, S-9, AROCLOR 1254, Method: PREINCUBATION) “active; positive”; under setting [2], “active; positive”. In addition, the mutagenic call by setting is: (Test System: AMES SALMONELLA TYPHIMURIUM, Strain/Indicator: TA100, Metabolic Activation: NONE, Method: STANDARD PLATE) “active; positive”; (Test System: AMES SALMONELLA TYPHIMURIUM, Strain/Indicator: TA104, Metabolic Activation: NONE, Method: STANDARD PLATE) “active; positive”; (Test System: AMES SALMONELLA TYPHIMURIUM, Strain/Indicator: TA4001, Metabolic Activation: NONE, Method: STANDARD PLATE) “inactive; negative”; (Test System: AMES SALMONELLA TYPHIMURIUM, Strain/Indicator: TA4006, Metabolic Activation: NONE, Method: STANDARD PLATE) “active; positive”; (Test System: AMES SALMONELLA TYPHIMURIUM, Strain/Indicator: TA7001, Metabolic Activation: NONE, Method: STANDARD PLATE) “active; positive”; (Test System: AMES SALMONELLA TYPHIMURIUM, Strain/Indicator: TA7001, Metabolic Activation: RAT LIVER S-9, AROCLOR 1254, Method: STANDARD PLATE) “inactive; negative”. Moreover, the mutagenic call runs as follows: (Test System: AMES SALMONELLA TYPHIMURIUM, Strain/Indicator: TA7002, Metabolic Activation: NONE, Method: STANDARD PLATE) “active; positive”; (Test System: AMES SALMONELLA TYPHIMURIUM, Strain/Indicator: TA7003, Metabolic Activation: NONE, Method: STANDARD PLATE) “active; positive”; (Test System: AMES SALMONELLA TYPHIMURIUM, Strain/Indicator: TA7003, Metabolic Activation: RAT LIVER S-9, AROCLOR 1254, Method: STANDARD PLATE) “inactive; negative”; (Test System: AMES SALMONELLA TYPHIMURIUM, Strain/Indicator: TA7004, Metabolic Activation: NONE, Method: STANDARD PLATE) “active; positive”; (Test System: AMES SALMONELLA TYPHIMURIUM, Strain/Indicator: TA7004, Metabolic Activation: RAT LIVER S-9, AROCLOR 1254, Method: STANDARD PLATE) “inactive; negative”; (Test System: AMES SALMONELLA TYPHIMURIUM, Strain/Indicator: TA7005, Metabolic Activation: NONE, Method: STANDARD PLATE) “active; positive”. Also, the mutagenic call is, setting by setting: (Test System: AMES SALMONELLA TYPHIMURIUM, Strain/Indicator: TA7006, Metabolic Activation: NONE, Method: STANDARD PLATE) “inactive; negative”; (Test System: CHINESE HAMSTER OVARY, Strain/Indicator: CHO-K1-BH4 (HGPRT), Metabolic Activation: NONE, Method: SUSPENSION/PLATE) “active; positive”.

On to `O=C(/C=C/c1ccc(O)c(O)c1)O[C@H](Cc1ccc(O)c(O)c1)C(=O)O`, for which, where the note is “End Point: In vivo micronucleus, Species: Mouse, Strain/Sex: Swiss/Male, Route: Oral”, the mutagenic call was “inactive; negative”.

For the compound `O=C(O)c1ccc2c(c1)C(=O)OC2=O`, the mutagenic call reads like this: (Test System: AMES SALMONELLA TYPHIMURIUM, Strain/Indicator: TA98, Metabolic Activation: HAMSTER, LIVER, S-9, AROCLOR 1254 (10%), Method: PREINCUBATION) “inactive; negative”; under setting [1], “inactive; negative”; (Test System: AMES SALMONELLA TYPHIMURIUM, Strain/Indicator: TA98, Metabolic Activation: RAT LIVER S-9, PHENOBARBITAL AND BETA-NAPHTHOFLAVONE, Method: PREINCUBATION) “inactive; negative”; (Test System: AMES SALMONELLA TYPHIMURIUM, Strain/Indicator: TA98, Metabolic Activation: RAT, LIVER, S-9, AROCLOR 1254 (10%), Method: PREINCUBATION) “inactive; negative”; (Test System: AMES SALMONELLA TYPHIMURIUM, Strain/Indicator: TA100, Metabolic Activation: HAMSTER, LIVER, S-9, AROCLOR 1254 (10%), Method: PREINCUBATION) “inactive; negative”; under setting [2], “inactive; negative”. The mutagenic call by setting is: (Test System: AMES SALMONELLA TYPHIMURIUM, Strain/Indicator: TA100, Metabolic Activation: RAT LIVER S-9, PHENOBARBITAL AND BETA-NAPHTHOFLAVONE, Method: PREINCUBATION) “inactive; negative”; (Test System: AMES SALMONELLA TYPHIMURIUM, Strain/Indicator: TA100, Metabolic Activation: RAT, LIVER, S-9, AROCLOR 1254 (10%), Method: PREINCUBATION) “inactive; negative”; (Test System: AMES SALMONELLA TYPHIMURIUM, Strain/Indicator: TA102, Metabolic Activation: NONE, Method: PREINCUBATION) “inactive; negative”; (Test System: AMES SALMONELLA TYPHIMURIUM, Strain/Indicator: TA102, Metabolic Activation: RAT LIVER S-9, PHENOBARBITAL AND BETA-NAPHTHOFLAVONE, Method: PREINCUBATION) “inactive; negative”; (Test System: AMES SALMONELLA TYPHIMURIUM, Strain/Indicator: TA104, Metabolic Activation: NONE, Method: PREINCUBATION) “inactive; negative”; (Test System: AMES SALMONELLA TYPHIMURIUM, Strain/Indicator: TA104, Metabolic Activation: RAT LIVER S-9, PHENOBARBITAL AND BETA-NAPHTHOFLAVONE, Method: PREINCUBATION) “inactive; negative”. Further, the mutagenic call is, setting by setting: (Test System: AMES SALMONELLA TYPHIMURIUM, Strain/Indicator: TA1535, Metabolic Activation: HAMSTER, LIVER, S-9, AROCLOR 1254 (10%), Method: PREINCUBATION) “inactive; negative”; (Test System: AMES SALMONELLA TYPHIMURIUM, Strain/Indicator: TA1535, Metabolic Activation: NONE, Method: PREINCUBATION) “inactive; negative”; (Test System: AMES SALMONELLA TYPHIMURIUM, Strain/Indicator: TA1535, Metabolic Activation: RAT LIVER S-9, PHENOBARBITAL AND BETA-NAPHTHOFLAVONE, Method: PREINCUBATION) “inactive; negative”; (Test System: AMES SALMONELLA TYPHIMURIUM, Strain/Indicator: TA1535, Metabolic Activation: RAT, LIVER, S-9, AROCLOR 1254 (10%), Method: PREINCUBATION) “inactive; negative”; (Test System: AMES SALMONELLA TYPHIMURIUM, Strain/Indicator: TA1537, Metabolic Activation: HAMSTER, LIVER, S-9, AROCLOR 1254 (10%), Method: PREINCUBATION) “inactive; negative”; (Test System: AMES SALMONELLA TYPHIMURIUM, Strain/Indicator: TA1537, Metabolic Activation: NONE, Method: PREINCUBATION) “inactive; negative”. For the same compound, the mutagenic call is, setting by setting: (Test System: AMES SALMONELLA TYPHIMURIUM, Strain/Indicator: TA1537, Metabolic Activation: RAT LIVER S-9, PHENOBARBITAL AND BETA-NAPHTHOFLAVONE, Method: PREINCUBATION) “inactive; negative”; (Test System: AMES SALMONELLA TYPHIMURIUM, Strain/Indicator: TA1537, Metabolic Activation: RAT, LIVER, S-9, AROCLOR 1254 (10%), Method: PREINCUBATION) “inactive; negative”; (Test System: E.COLI, Strain/Indicator: WP2UVRA/PKM101, Metabolic Activation: NONE, Method: PREINCUBATION) “inactive; negative”; (Test System: E.COLI, Strain/Indicator: WP2UVRA/PKM101, Metabolic Activation: RAT LIVER S-9, PHENOBARBITAL AND BETA-NAPHTHOFLAVONE, Method: PREINCUBATION) “inactive; negative”; (Test System: E.COLI, Strain/Indicator: WP2UVRA, Metabolic Activation: NONE, Method: PREINCUBATION) “inactive; negative”; (Test System: E.COLI, Strain/Indicator: WP2UVRA, Metabolic Activation: RAT LIVER S-9, PHENOBARBITAL AND BETA-NAPHTHOFLAVONE, Method: PREINCUBATION) “inactive; negative”.

On to `C=CCS(=O)(=O)CC=C`, for which the mutagenic call (End Point: In vivo micronucleus, Test System: Peripheral blood reticulocytes, Species: Mouse, Strain/Sex: F1 (Big Blue x A/J) transgenic/Male and female, Route: Oral) was “inactive; negative”.

`Cc1nc2cc(C)c3c(nc(N)n3C)c2nc1C`: the mutagenic call (Test System: AMES SALMONELLA TYPHIMURIUM, Strain/Indicator: TA98, Metabolic Activation: RAT, LIVER, S-9, AROCLOR 1254, Method: STANDARD PLATE) is “active; positive”.
